From US20030113312A1, “Skin barrier function and cohesion through enhanced stratum corneum acidification” (The Regents of the University of California, priority 2001, published 2003)
Each block holds one molecule with its values, some of them ahead of it.

Columns and labels:
NHE1 antiporter [1] = biological target: T1, NHE1 antiporter (Homo sapiens, UniProt P19634); assay: Intracellular pH (BCECF) and recovery from acid load in cultured human keratinocytes; type: cell-based
T1 construct: endogenous in cells; host or cells: second passage cultured human keratinocytes from human foreskin (CHK)
T1 sequence (P19634 whole entry): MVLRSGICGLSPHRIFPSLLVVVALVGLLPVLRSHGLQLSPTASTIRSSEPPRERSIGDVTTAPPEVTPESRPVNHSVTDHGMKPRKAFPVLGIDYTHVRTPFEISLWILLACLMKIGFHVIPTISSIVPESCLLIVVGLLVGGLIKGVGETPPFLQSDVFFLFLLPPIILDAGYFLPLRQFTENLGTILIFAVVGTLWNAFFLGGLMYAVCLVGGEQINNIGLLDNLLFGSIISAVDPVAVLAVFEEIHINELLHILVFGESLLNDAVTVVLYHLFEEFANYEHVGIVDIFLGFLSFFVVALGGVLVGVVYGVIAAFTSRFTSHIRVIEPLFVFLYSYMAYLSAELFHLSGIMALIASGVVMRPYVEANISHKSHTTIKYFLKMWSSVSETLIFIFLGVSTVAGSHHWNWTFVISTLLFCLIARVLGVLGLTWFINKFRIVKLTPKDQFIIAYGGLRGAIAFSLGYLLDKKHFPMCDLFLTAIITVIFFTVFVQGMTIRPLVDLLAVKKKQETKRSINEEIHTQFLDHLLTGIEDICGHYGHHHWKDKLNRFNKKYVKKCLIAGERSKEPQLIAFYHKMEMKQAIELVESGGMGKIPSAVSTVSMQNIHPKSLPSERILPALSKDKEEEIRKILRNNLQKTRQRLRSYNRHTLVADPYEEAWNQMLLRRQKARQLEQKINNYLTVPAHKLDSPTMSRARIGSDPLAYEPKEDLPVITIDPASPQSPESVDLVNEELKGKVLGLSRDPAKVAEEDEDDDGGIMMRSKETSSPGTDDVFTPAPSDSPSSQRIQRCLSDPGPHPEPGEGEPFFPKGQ
Description: Assessment of Intracellular pH: Keratinocytes were plated on glass coverslips and grown in Cascade 154 medium containing 0.07 mM Ca^2+. The coverslips were incubated in 145 μM BCECF-AM ester at room temperature for 5 minutes, then rinsed for 30 minutes in buffer containing either 28 mM HEPES, 136 mM NaCl, 5 mM KCl, 0.07 mM CaCl2 and 10 mM glucose, pH 7.4 or Ringer solution (136 mM NaCl, 5 mM KCl, 0.03 mM Ca2+, 28 mM TES, 14 mM Na HCO3, NaOH to adjust the pH to 7.4, and 10 mM glucose (pH 7.4, 330 mOsm)). BCECF-AM-ester is membrane permeable; once inside cells it is de-esterified by endogenous […], trapping flourescently-active, acidic BCECF inside the cells. The BCECF-loaded cells were placed in a superfusion chamber mounted on a inverted microscope (Nikon). The keratinocytes were superfused with one of the two solutions, and baseline intracellular pH was monitored constantly using a ratiometric method (Paradiio et al (1987) Am J. Physiol. 253:C30-6). Briefly, BCECF loaded cells were alternately illuminated every 10 seconds with brief flashes (200 milliseconds) of 440 nm and 490 nm light. The resultant fluorescence (at 530 nm) from each stimulating wavelength was measured with a CCD camera (Hamamatsu) digitally ratioed, and stored using a software program (Fluor, Universal Imaging Co., West Chester, Pa.). Whereas fluorescence emission at 440 nm excitation remains constant, indicative of dye concentration, emission from 490 nm varies proportionally with changes intracellular pH. By ratioing the two signals, intracellular pH is measured as a brightness signal corrected for the intracellular dye concentration.
Calibration was performed at the end of each experiment by permeablizing the cells to protons with nigericin, thereby equilibrating intra- and extracellular pH. Superfusing the cells with solutions containing 85 mM NaCl, 50 mM KCl, 0.07 mM CaCl2, […] nigericin (a K^+/H^+ exchanger), and either 28 mM HEPES, or 28 mM TES bubbled with 5% CO2, pH 6.8 or 7.8, allowed to calibrate intracellular signals. […]

[2] = tested on: hairless mice skin (stratum corneum); assay: Skin surface pH after topical treatment or buffer exposure; type: in vivo, mouse; settings: free fatty acid co-applied with BPB for three days
Description: Animals: Male hairless mice (Skh1/Hr, Charles River Laboratories, Wilmington, Mass.), 8-12 weeks old, were fed Purina mouse diet and water ad libitum. […] Functional experiments were performed on animals aged 6-10 weeks.
The mice were anesthetized with chloral hydrate (Morton Grove Pharmaceuticals, Morton Grove, Ill., USA). After 3 hours immersion at 37° C., the mice were removed, and the remaining buffer was gently blotted off. After 15 minutes, barrier function was determined by measurement of transepidermal water loss (TEWL) with an electrolytic water analyzer (MEECO®, Warrington, Pa.). Surface pH was measured with a flat, glass surface electrode from Mettler-Toledo (Giessen, Germany), attached to a pH meter (Skin pH Meter PH 900, Courage & Khazaka, Cologne, Germany). Individually tested sites were covered with Hilltop Chambers (HtC, nominal volume 200 mL), which were reapplied following each indvidual measurement.

[3] = tested on: hairless mice skin (stratum corneum); assay: Stratum corneum integrity: TEWL after sequential tape stripping; type: in vivo, mouse; settings: for TEWL rate by the fifth strip: fatty acid co-applied with BPB for three days; for sPLA2 inhibitor induced abnormalities in stratum corneum integrity and cohesion: fatty acid co-applied with BPB or MJ33
Description: The mice were anesthetized with chloral hydrate (Morton Grove Pharmaceuticals, Morton Grove, Ill., USA). […] After 15 minutes, barrier function was determined by measurement of transepidermal water loss (TEWL) with an electrolytic water analyzer (MEECO®, Warrington, Pa.). […] Individually tested sites were covered with Hilltop Chambers (HtC, nominal volume 200 mL), which were reapplied following each indvidual measurement.

[4] = tested on: hairless mice skin (stratum corneum); assay: Stratum corneum cohesion: protein removed per D-Squame stripping; type: in vivo, mouse; settings: for cumulative protein loss at the fifth strip: fatty acid co-applied with BPB for three days
Description: Before stripping the stratum corneum, the skin surface was cleaned with a single ethanol wipe. D-Squame tapes then were placed sequentially to the test areas for about 3 sec each, removed with forceps, and stored in glass scintillation vials at 5° C.
The protein content per stripping was determined with the Bio-Rad protein assay kit. […] Each tape was incubated with 1 M NaOH for 1 hour at 37° C. in an incubator shaker at 80 rpm, and neutralized thereafter with 1 mL of 1 M HCl in the scintillation vials. Subsequently, 0.2 mL of this solution was incubated in 0.6 ml distilled water plus 0.2 mL of the Bio-Rad protein dye for 5 minutes in boroscillate tubes. […] An empty D-Squame tape, as well as distilled water incubated with Bio-Rad dye, served as negative controls. The amount of calculated protein was then normalized to skin surface area (μg/cm^2).

NHE1 antiporter [5] = biological target: T2, NHE1 antiporter (Mus musculus, UniProt Q61165); assay: Barrier recovery (TEWL) after tape stripping; type: in vivo; settings: for kinetics of barrier recovery after tape-stripping: NHE1 inhibitors, topical, hairless mice
T2 construct: from tissue; host or cells: skin (epidermis / stratum corneum) of living hairless mice
T2 sequence (Q61165 whole entry): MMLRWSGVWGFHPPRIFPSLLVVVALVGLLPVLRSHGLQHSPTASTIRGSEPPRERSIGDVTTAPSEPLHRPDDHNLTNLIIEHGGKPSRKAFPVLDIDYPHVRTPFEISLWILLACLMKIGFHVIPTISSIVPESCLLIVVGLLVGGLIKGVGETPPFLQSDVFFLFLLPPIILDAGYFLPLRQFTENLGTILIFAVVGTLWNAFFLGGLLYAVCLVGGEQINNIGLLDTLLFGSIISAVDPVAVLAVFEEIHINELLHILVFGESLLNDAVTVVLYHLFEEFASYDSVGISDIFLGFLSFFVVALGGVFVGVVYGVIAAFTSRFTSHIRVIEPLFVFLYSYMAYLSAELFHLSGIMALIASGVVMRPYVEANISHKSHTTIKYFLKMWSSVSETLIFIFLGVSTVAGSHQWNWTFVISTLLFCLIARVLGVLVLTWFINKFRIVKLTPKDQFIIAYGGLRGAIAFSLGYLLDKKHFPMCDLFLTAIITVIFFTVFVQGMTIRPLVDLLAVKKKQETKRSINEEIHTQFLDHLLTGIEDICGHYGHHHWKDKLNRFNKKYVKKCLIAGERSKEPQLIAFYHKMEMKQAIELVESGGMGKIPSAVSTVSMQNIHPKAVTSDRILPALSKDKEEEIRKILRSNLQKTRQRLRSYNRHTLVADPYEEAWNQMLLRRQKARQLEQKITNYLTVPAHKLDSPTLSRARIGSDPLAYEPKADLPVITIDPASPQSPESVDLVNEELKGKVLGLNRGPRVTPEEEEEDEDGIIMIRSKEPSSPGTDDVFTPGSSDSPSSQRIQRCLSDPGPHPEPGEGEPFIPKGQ
Description: (§1) Permeability Barrier Studies: Normal hairless mice were treated topically twice a daily for three days with BPB (4 mg/mL) or MJ33 (4 mg/mL) both in propylene glycol:ethanol (7:3 v/v) vehicle, or the vehicle alone on an area of 5-6 cm on the backs and flanks as described previously (Mao-Qiang, M., et al., J. Lipid Res. 36:1926-35 (1995)). The doses employed were shown previously to be non-toxic to Murine skin (Mao-Qiang, M., et al. (1995); Mao-Qiang, M., et al., J. Invest. Dermatol. 106:57-63 (1996)), and to inhibit secretory phospholipase A2 (sPLA2) activity selectively in different cell types (Gelb, M. H., et al., Faseb J. 8:916-24 (1994); Jain, M. K., et al. (1991)). The acidification experiments were performed with 10 mM HEPES-buffer, adjusted to either pH 5.5 or pH 7.4 as follows: One flank of anesthetized mice was immersed on a mesh netting, as described previously (Lee, S. H., et al., J. Clin. Invest. 89:530-8 (1992)). The mice were anesthetized with chloral hydrate (Morton Grove Pharmaceuticals, Morton Grove, Ill., USA). After 3 hours immersion at 37° C., the mice were removed, and the remaining buffer was gently blotted off. After 15 minutes, barrier function was determined by measurement of transepidermal water loss (TEWL) with an electrolytic water analyzer (MEECO®, Warrington, Pa.). Surface pH was measured with a flat, glass surface electrode from Mettler-Toledo (Giessen, Germany), attached to a pH meter (Skin pH Meter PH 900, Courage & Khazaka, Cologne, Germany). Individually tested sites were covered with Hilltop Chambers (HtC, nominal volume […]), which were reapplied following each indvidual measurement.
(§2) The stratum corneum was removed by several strippings with adhesive tape (Tesa, Beiersdorf, Germany) inducing an increase in TEWL rates above baseline (from 0.2 to approximately 7-9 g/m^2/h). Two sites were prepared on each animal, and TEWL and surface pH were measured at 0, 2, 5 and 24 hrs following the stripping and the applications of inhibitors. Biopsies were taken for electron microscopy from treated and control sites, at 5 and 24 hours. For studies in the NHE1 knockout mice, homozygous (−/−) mice were compared to their wildtype (+/+) littermates. Flanks of these mice were shaved, and barrier homostasis was studied 48 hours later. For tape-stripping of these animals, D-Squame disks (Cu-derm, Dallas, Tex.) were used, as Tesa tape was too disruptive for application to shaved, hairy mouse skin.
Hairless mice were tape stripped to TEWL of 7-9 g/m^2/h. […] Control areas were covered with Hilltop Chambers containing 10 mM HEPES buffer adjusted to pH 7.4 or pH 5.5 as appropriate. TEWL was measured at 0, 2, 5, and 24 hours post tape-strip. The results are reported as percent barrier recovery from the initial induced defect.

NHE1 antiporter [6] = biological target: T2, NHE1 antiporter; assay: Stratum corneum surface pH after tape stripping with buffers with or without NHE1 inhibitor; type: in vivo
Description: as §1, §2
To investigate the role of NHE 1 in maintaining the pH balance of the stratum corneum, the integrity of murine skin exposed to different buffers and NHE1 inhibitors, was disrupted by tape-stripping. The pH of the exposed skin was measured before and after tape-stripping. Before tape-stripping, the surface pH in all animals was acidic (6.03+/−0.20, n=78). […] At five hours post-tape-strip, these samples were still not fully recovered, remaining more than 0.05 pH units higher than the initial post-tape-strip values.

[7] = tested on: hairless mice skin (stratum corneum); assay: Electron microscopy of lamellar body secretion and extracellular lipid processing; type: in vivo, mouse; settings: EM of biopsies
Description: as §2
Ultrastructural methods: Freshly obtained biopsies from mouse skin were fixed directly in modified Karnovsky's fixative, postfixed with reduced osmium tetroxide (OS04) and then imbedded in an Epon-epoxy mixture. For visualization of lipid-enriched, lamellar bilayer structures, some samples were post fixed in ruthenium tetroxide (RuO4). Sections were cut on a Reichert Ultracut E microtome, counterstained with uranyl acetate and lead citrate, and viewed in a Zeiss 10 CR electron microscope, operated at 60 kV.
Biopsies were taken during time course experiments.

[8] = fatty acid co-applied with MJ33 for three days
[9] = inhibitor in pH 7.4 buffer (amiloride 5 μM, HOE694 7.5 μM), two hours post tape-strip
[10] = inhibitor in pH 7.4 buffer, five hours post tape-strip
[11] = HOE694 in pH 7.4 buffer, two hours post tape strip

Compound: Cl.N [NH4Cl, ammonium chloride]
intracellular pH response (NHE1 antiporter [1]; NH4Cl added to cultures of CHK, initial alkalinization, then after dissociation of the ammonium ion): take on an acid load

Compound: CCCCCCCCCCCCCCCC(=O)O [palmitic acid]
pH of the stratum corneum [2]: 5.40+/−0.14
TEWL rate by the fifth strip [3]: 55-60 g/m^2/h
sPLA2 inhibitor induced abnormalities in stratum corneum integrity and cohesion [3]: prevented emergence
TEWL rate after three sequential tape-strippings [3, 8]: 30-35 g/m^2/h
cumulative protein loss at the fifth strip [4]: about 40 μg/cm^2
loss of protein after three strippings [4, 8]: about 30 μg/cm^2

Compound: CCCCCCCCCCCCCCCCCC(=O)O [stearic acid]
pH of the stratum corneum [2]: 5.73+/−0.09
TEWL rate by the fifth strip [3]: about 25 g/m^2/h
sPLA2 inhibitor induced abnormalities in stratum corneum integrity and cohesion [3]: prevented emergence
cumulative protein loss at the fifth strip [4]: about 25 μg/cm^2

Compound: CCCCC/C=C\C/C=C\CCCCCCCC(=O)O [linoleic acid]
pH of the stratum corneum [2]: 5.77+/−0.10
sPLA2 inhibitor induced abnormalities in stratum corneum integrity and cohesion [3]: to a lesser extent

kinetics of barrier recovery after tape-stripping (NHE1 antiporter [5]): delayed barrier recovery
percent barrier recovery (TEWL rate less than the initial induced rate) (NHE1 antiporter [5]; [9]): about 12%
percent barrier recovery (TEWL rate less than the initial induced rate) (NHE1 antiporter [5]; [10]): about 25%
Compound: N=C(N)NC(=O)c1nc(Cl)c(N)nc1N [amiloride, N-Amido-3,5-diamino-6-chloropyrazinecarboxamide]
effect after wash out period (NHE1 antiporter [1]; cultured human keratinocytes, wash out of amiloride, recovery from the acid load): non-permanent, non-toxic effect

intracellular pH (NHE1 antiporter [1]; 1.5 μM for 16 hours, dropped from pH 7.05): 6.90 pH
initial post-tape-strip pH value vs pH 5.5 buffer alone (NHE1 antiporter [6]; HOE694 in pH 5.5 buffer): increased significantly
pH increase over the initial post-tape-strip value (NHE1 antiporter [6]; HOE694 in pH 5.5 buffer, five hours post-tape-strip): more than 0.05 pH units
pH increase over the initial post-tape-strip value (NHE1 antiporter [6]; HOE694 in pH 5.5 buffer, two hours post-tape-strip): more than 0.1 pH units
initial post-tape-strip pH value vs pH 7.4 buffer only (NHE1 antiporter [6]; HOE694 in pH 7.4 buffer): similar
elevated pH at five hours (NHE1 antiporter [6]; HOE694 in pH 7.4 buffer, five hours post tape strip): persisted and even increased
pH increase over the initial post-tape-strip value (NHE1 antiporter [6]; [11]): > 0.1 pH unit
pH increase over the two hour time point of pH 7.4 buffer alone (NHE1 antiporter [6]; [11]): ~0.05 pH units
percent barrier recovery (TEWL rate less than the initial induced rate) (NHE1 antiporter [5]; HOE694 in pH 5.5 buffer, 2 hours post tape-strip): 25%
percent barrier recovery (TEWL rate less than the initial induced rate) (NHE1 antiporter [5]; HOE694 in pH 5.5 buffer, 5 hours post tape-strip): 38%
percent barrier recovery (TEWL rate less than the initial induced rate) (NHE1 antiporter [5]; HOE694 in pH 5.5 buffer, 24 hours post tape-strip): 75%
kinetics of barrier recovery after tape-stripping (NHE1 antiporter [5]): delayed barrier recovery
percent barrier recovery (TEWL rate less than the initial induced rate) (NHE1 antiporter [5]; [9]): about 12%
percent barrier recovery (TEWL rate less than the initial induced rate) (NHE1 antiporter [5]; inhibitor in pH 7.4 buffer, 24 hours post tape-strip): about 45%
percent barrier recovery (TEWL rate less than the initial induced rate) (NHE1 antiporter [5]; [10]): 23%
Compound: CS(=O)(=O)c1cc(C(=O)NC(=N)N)ccc1N1CCCCC1 [HOE694, 3-methylsulfonyl-4-piperidino-benzoylguanidinemethanesulfonate]
extracellular processing of secreted lipids ([7]; HOE694 in pH 5.5 buffer): appeared normal
extracellular processing of secreted lipids ([7]; HOE694 in pH 7.4 buffer): defective
lamellar body formation and secretion ([7]; HOE694 in pH 7.4 buffer): undisturbed
